From US20040198763A1, “Method of treating dry eye with a macrolide compound” (Sucampo AG, priority 2003, published 2004)

What was measured:
[1] = system: Human patients diagnosed as having kerratoconjunctivitis sicca (KCS; dry eye); assay: Conjunctival lissamine green staining in dry eye patients treated with eye drops; format: in vivo; conditions: day 42, patients with Schirmer score <5 mm/5 min and SPK score at least 3
Experimental: Human patients diagnosed as having kerratoconjunctivitis sicca (KCS; dry eye) were treated with eye drops containing either various concentrations of tacrolimus, a macrolide compound according to the invention or placebo. Eye drops were administered 3 times per day for six weeks (42 days). Patients were evaluated using the Schirmer test; corneal fluorescein staining, conjunctival lissamine green staining and an ocular discomfort score. Conjunctival lissamine green staining was performed by instilling a drop of lissamine green ophthalmic solution into the cul-de-sac of the eye. Following instillation, punctate staining was evaluated for the nasal and temporal interpalpebral conjunctiva using the following scoring system: [table]

[2] = system: Human patients diagnosed as having kerratoconjunctivitis sicca (KCS; dry eye); assay: Ocular discomfort score in dry eye patients treated with eye drops; format: in vivo; conditions: day 42, patients with Schirmer score <5 mm/5 min and SPK score at least 3
Experimental: Human patients diagnosed as having kerratoconjunctivitis sicca (KCS; dry eye) were treated with eye drops containing either various concentrations of tacrolimus, a macrolide compound according to the invention or placebo. Eye drops were administered 3 times per day for six weeks (42 days). Patients were evaluated using the Schirmer test; corneal fluorescein staining, conjunctival lissamine green staining and an ocular discomfort score. Patients were also evaluated based on ratings of their ocular discomfort, which was a composite of scores for burning/stinging, irritation, photophobia, dry eye sensation and foreign body sensation. Scoring was on a five-point scale, as follows: [table]

[3] = 0.01% eye drops 3 times per day
[4] = 0.06% eye drops 3 times per day

## C=CCC1/C=C(\C)CC(C)CC(OC)C2OC(O)(C(=O)C(=O)N3CCCCC3C(=O)OC(/C(C)=C/C3CCC(O)C(OC)C3)C(C)C(O)CC1=O)C(C)CC2OC (stereo not shown) [macrolide compound]
[1]; [3]
  lissamine green staining decrease from baseline: 1.8±1.47 units
[1]; [4]
  lissamine green staining decrease from baseline: 3.9±2.03 units
[2]; [3]
  mean ocular discomfort decrease from baseline: 6.0±4.43 units
[2]; [4]
  mean ocular discomfort decrease from baseline: 6.8±3.01 units
